Laboratory results: ChEMBL document CHEMBL3875150, “Biological evaluation of some new N-(2,6-dimethoxypyrimidinyl) thioureido benzenesulfonamide derivatives as potential antimicrobial and anticancer agents” (Eur J Med Chem, 2016)
≈ marks a conversion by molar mass, not a printed value.

Tests used:
[1] = test system: Bacillus subtilis; test: Antibacterial activity against Bacillus subtilis RCMB 010067 assessed as diameter of inhibition zone at 1 mg/mL after 24 to 48 hrs by agar well diffusion method; type: functional; conditions: read-out: DIZ
[2] = test system: Pseudomonas aeruginosa; test: Antibacterial activity against Pseudomonas aeruginosa RCMB 010043 assessed as diameter of inhibition zone at 1 mg/mL after 24 to 48 hrs by agar well diffusion method; type: functional; conditions: read-out: DIZ
[3] = test system: Bacillus subtilis; test: Antibacterial activity against Bacillus subtilis RCMB 010067 after 24 to 48 hrs by agar well diffusion method; type: functional
[4] = test system: Escherichia coli; test: Antibacterial activity against Escherichia coli RCMB 010052 assessed as diameter of inhibition zone at 1 mg/mL after 24 to 48 hrs by agar well diffusion method; type: functional; conditions: read-out: DIZ
[5] = test system: Streptococcus pneumoniae; test: Antibacterial activity against Streptococcus pneumoniae RCMB 010010 after 24 to 48 hrs by agar well diffusion method; type: functional
[6] = test system: Streptococcus pneumoniae; test: Antibacterial activity against Streptococcus pneumoniae RCMB 010010 assessed as diameter of inhibition zone at 1 mg/mL after 24 to 48 hrs by agar well diffusion method; type: functional; conditions: read-out: DIZ
[7] = test system: MCF7; test: (§1) Cytotoxicity against human MCF7 cells assessed as decrease in cell viability after 24 hrs by MTT assay; type: functional, cell-based
[8] = as §1; type: functional, cell-based; conditions: MCF7, 24 h
[9] = test system: Pseudomonas aeruginosa; test: Antibacterial activity against Pseudomonas aeruginosa RCMB 010043 after 24 to 48 hrs by agar well diffusion method; type: functional
[10] = test system: Escherichia coli; test: Antibacterial activity against Escherichia coli RCMB 010052 after 24 to 48 hrs by agar well diffusion method; type: functional
[11] = test system: Candida albicans; test: Antifungal activity against Candida albicans RCMB 005036 after 24 to 48 hrs by agar well diffusion method; type: functional
[12] = test system: Candida albicans; test: Antifungal activity against Candida albicans RCMB 005036 assessed as diameter of inhibition zone at 1 mg/mL after 24 to 48 hrs by agar well diffusion method; type: functional; conditions: read-out: DIZ
[13] = test system: Aspergillus fumigatus; test: Antifungal activity against Aspergillus fumigatus RCMB 002568 after 24 to 48 hrs by agar well diffusion method; type: functional
[14] = test system: Aspergillus fumigatus; test: Antifungal activity against Aspergillus fumigatus RCMB 002568 assessed as diameter of inhibition zone at 1 mg/mL after 48 hrs by agar well diffusion method; type: functional; conditions: RCMB 002568, 48 h, read-out: DIZ

SMILES	zone of inhibition at 1000 µg/mL [1] [mm]	zone of inhibition at 1000 µg/mL [2] [mm]	MIC [3] [µg/mL]	zone of inhibition at 1000 µg/mL [4] [mm]	MIC [5] [µg/mL]	zone of inhibition at 1000 µg/mL [6] [mm]	Activity [7]	IC50 [8] [µg/mL]	MIC [9] [µg/mL]	MIC [10] [µg/mL]	MIC [11] [µg/mL]	zone of inhibition at 1000 µg/mL [12] [mm]	MIC [13] [µg/mL]	zone of inhibition at 1000 µg/mL [14] [mm]
O=C(O)c1cn(C2CC2)c2cc(N3CCNCC3)c(F)cc2c1=O [CIPROFLOXACIN]	27.2	21.3	0.1 (≈ 0.302 µM)	25.8	0.98 (≈ 2.96 µM)	22.4	–	–	–	–	–	–	–	–
COc1cc(NS(=O)(=O)c2ccc(NC(=S)Nc3cccnc3)cc2)nc(OC)n1	–	–	–	–	–	–	Dose-dependent effect	170 (≈ 380 µM)	–	–	–	–	–	–
COc1cc(NS(=O)(=O)c2ccc(NC(=S)Nc3nc(C)cc(C)n3)cc2)nc(OC)n1	–	–	–	–	–	–	Dose-dependent effect	82.9 (≈ 174 µM)	–	–	–	–	–	–
COc1cc(NS(=O)(=O)c2ccc(NC(=S)Nc3ccncc3)cc2)nc(OC)n1	15.9	–	62.5 (≈ 140 µM)	13.2	62.5 (≈ 140 µM)	15.3	Dose-dependent effect	168 (≈ 376 µM)	> 1000	125 (≈ 280 µM)	125 (≈ 280 µM)	13.9	62.5 (≈ 140 µM)	15.6
COc1cc(NS(=O)(=O)c2ccc(NC(=S)Nc3cccc4nsnc34)cc2)nc(OC)n1	26.3	11.7	0.98 (≈ 1.95 µM)	24.2	1.95 (≈ 3.87 µM)	22.7	Dose-dependent effect	> 200	250 (≈ 496 µM)	0.98 (≈ 1.95 µM)	3.9 (≈ 7.74 µM)	20.4	1.95 (≈ 3.87 µM)	22.3
COc1cc(NS(=O)(=O)c2ccc(NC(=S)Nc3nccc4ccccc34)cc2)nc(OC)n1	–	–	–	–	–	–	Dose-dependent effect	> 200	–	–	–	–	–	–
COc1cc(NS(=O)(=O)c2ccc(NC(=S)Nc3cc(=O)n(C)c(=O)n3C)cc2)nc(OC)n1	18.5	8.1	3.9 (≈ 7.68 µM)	19.1	7.81 (≈ 15.4 µM)	17.9	Dose-dependent effect	96.1 (≈ 189 µM)	500 (≈ 985 µM)	3.9 (≈ 7.68 µM)	125 (≈ 246 µM)	13.8	62.5 (≈ 123 µM)	15.7
COc1cc(NS(=O)(=O)c2ccc(NC(=S)Nc3nc4cc(C)c(C)cc4s3)cc2)nc(OC)n1	25.3	10.3	0.98 (≈ 1.85 µM)	26.3	1.95 (≈ 3.67 µM)	22.7	Dose-dependent effect	93.9 (≈ 177 µM)	250 (≈ 471 µM)	0.98 (≈ 1.85 µM)	3.9 (≈ 7.35 µM)	21.4	1.95 (≈ 3.67 µM)	23.3
O=c1[nH]cc(F)c(=O)[nH]1 [FLUOROURACIL]	–	–	–	–	–	–	Dose-dependent effect	4.8 (≈ 36.9 µM)	–	–	–	–	–	–
COc1cc(NS(=O)(=O)c2ccc(NC(=S)Nc3cc(C)nc4ccccc34)cc2)nc(OC)n1	14.4	8.9	125 (≈ 245 µM)	15	125 (≈ 245 µM)	13.9	Dose-dependent effect	68.7 (≈ 135 µM)	500 (≈ 979 µM)	125 (≈ 245 µM)	125 (≈ 245 µM)	14.5	125 (≈ 245 µM)	13.7
COc1cc(NS(=O)(=O)c2ccc(NC(=S)Nc3cnccn3)cc2)nc(OC)n1	26.4	18.3	0.98 (≈ 2.19 µM)	28.7	0.98 (≈ 2.19 µM)	25.8	Dose-dependent effect	> 200	62.5 (≈ 140 µM)	0.49 (≈ 1.09 µM)	1.95 (≈ 4.36 µM)	23.4	0.98 (≈ 2.19 µM)	24.9
C[C@@H]1[C@H](O)[C@@H](C)/C=C/C=C/C=C/C=C/C=C/C=C/C=C/[C@H](O[C@@H]2O[C@H](C)[C@@H](O)[C@H](N)[C@@H]2O)C[C@@H]2O[C@](O)(C[C@@H](O)C[C@@H](O)[C@H](O)CC[C@@H](O)C[C@@H](O)CC(=O)O[C@H]1C)C[C@H](O)[C@H]2C(=O)O [AMPHOTERICIN B]	–	–	–	–	–	–	–	–	–	–	3.9 (≈ 4.22 µM)	25.4	1.95 (≈ 2.11 µM)	23.7
CCn1c2ccccc2c2cc(NC(=S)Nc3ccc(S(=O)(=O)Nc4cc(OC)nc(OC)n4)cc3)ccc21	–	–	–	–	–	–	Dose-dependent effect	143 (≈ 254 µM)	–	–	–	12.1	–	10.3
COc1cc(NS(=O)(=O)c2ccc(NC(=S)Nc3cc(=O)[nH]c(=O)[nH]3)cc2)nc(OC)n1	26.1	8.5	0.98 (≈ 2.04 µM)	24.3	1.95 (≈ 4.07 µM)	22.3	Dose-dependent effect	37.3 (≈ 77.8 µM)	500 (≈ 1040 µM)	0.98 (≈ 2.04 µM)	3.9 (≈ 8.13 µM)	20.1	3.9 (≈ 8.13 µM)	21.3
CCSc1nnc(NC(=S)Nc2ccc(S(=O)(=O)Nc3cc(OC)nc(OC)n3)cc2)s1	–	–	–	–	–	–	Dose-dependent effect	119 (≈ 232 µM)	–	–	–	12.5	–	14.3
COc1cc(NS(=O)(=O)c2ccc(NC(=S)Nc3nnc(C)c(C)n3)cc2)nc(OC)n1	–	–	–	–	–	–	Dose-dependent effect	44.8 (≈ 94 µM)	–	–	–	–	–	–
COc1cc(NS(=O)(=O)c2ccc(NC(=S)Nc3nc4ccc([N+](=O)[O-])cc4s3)cc2)nc(OC)n1	14.1	–	125 (≈ 228 µM)	13.3	125 (≈ 228 µM)	13.3	Dose-dependent effect	9.43 (≈ 17.2 µM)	> 1000	125 (≈ 228 µM)	250 (≈ 457 µM)	10.8	250 (≈ 457 µM)	11.7
COc1cc(NS(=O)(=O)c2ccc(NC(=S)Nc3c(C)n(C)n(-c4ccccc4)c3=O)cc2)nc(OC)n1	–	–	–	–	–	–	Dose-dependent effect	113 (≈ 203 µM)	–	–	–	12.6	–	13.6
CCOc1ccc2nc(NC(=S)Nc3ccc(S(=O)(=O)Nc4cc(OC)nc(OC)n4)cc3)sc2c1	21.3	9.2	3.9 (≈ 7.13 µM)	18.3	3.9 (≈ 7.13 µM)	20.3	Dose-dependent effect	> 200	500 (≈ 915 µM)	7.81 (≈ 14.3 µM)	7.81 (≈ 14.3 µM)	19.1	7.81 (≈ 14.3 µM)	18.3
COc1cc(NS(=O)(=O)c2ccc(NC(=S)Nc3ccc4c(C)cc(=O)oc4c3)cc2)nc(OC)n1	23.4	10.6	1.95 (≈ 3.7 µM)	23.4	3.9 (≈ 7.39 µM)	20.6	Dose-dependent effect	35.2 (≈ 66.7 µM)	125 (≈ 237 µM)	1.95 (≈ 3.7 µM)	7.81 (≈ 14.8 µM)	18.1	3.9 (≈ 7.39 µM)	20.3
COc1cc(NS(=O)(=O)c2ccc(NC(=S)Nc3ccc4c(c3)oc(=O)c3ccccc34)cc2)nc(OC)n1	–	–	–	7.8	–	–	Dose-dependent effect	40.3 (≈ 71.5 µM)	–	–	–	13.1	–	14.2
COc1cc(NS(=O)(=O)c2ccc(NC(=S)Nc3nc4c(OC)cccc4s3)cc2)nc(OC)n1	18.3	8.9	7.81 (≈ 14.7 µM)	16.2	7.81 (≈ 14.7 µM)	17.8	Dose-dependent effect	47.6 (≈ 89.4 µM)	500 (≈ 939 µM)	62.5 (≈ 117 µM)	125 (≈ 235 µM)	13.2	7.81 (≈ 14.7 µM)	16.4
COc1cc(NS(=O)(=O)c2ccc(NC(=S)NN3C(=O)CSC3=S)cc2)nc(OC)n1	28.1	14.9	0.49 (≈ 0.979 µM)	27.2	0.98 (≈ 1.96 µM)	24.3	Dose-dependent effect	47.7 (≈ 95.3 µM)	62.5 (≈ 125 µM)	0.49 (≈ 0.979 µM)	1.95 (≈ 3.9 µM)	22.3	0.98 (≈ 1.96 µM)	24.3
